Experimental data: patent US20230099441A1, “HETEROCYCLIC COMPOUND, APPLICATION THEREOF, AND COMPOSITION CONTAINING SAME” (GenEros Biopharma Ltd., priority 2019, published 2023)

Test system: STAT5 Y694 phosphorylation
Assay: Protein electrophoresis and blotting of STAT5 Y694 phosphorylation in Jurkat cells stimulated with human interferon beta
Assay type: cell-based
Conditions: for Inhibiting Ratio (0% for vehicle control): 1 hour pretreatment, 20 ng/ml human interferon beta 30 minutes, pSTAT5/GAPDH; for Example of Effect 1: Inhibiting Ability (Protein Electrophoresis and Blotting): observed pSTAT5 bands at 10 μM and 100 μM
Description: Example of Effect 1: Protein Electrophoresis and Blotting Experiment
Standard protein electrophoresis and chemiluminescence imaging equipment (Bio-Rad);
Protein lysate RIPA (Lianke Biological; Cat #WB020); Western blot transfer membrane PVDF (Millipore; Cat #IPVH00010);
Jurkat cells (ATCC American Standard Culture Center, TIB152) were cultured in a 6-well plate at a density of 1×10^6/ml with RPMI medium […] 10% fetal bovine serum in a humidified incubator at 37° C. and maintained at 5% carbon dioxide overnight. On the second day, the cells were pretreated with compounds of different concentrations (the mother liquor of the compound prepared by dimethyl sulfoxide was diluted in the medium at the required concentration) for 1 hour, and then stimulated with 20 ng/ml human interferon beta for 30 minutes, it was mixed thoroughly and then placed in an incubator at 37° C. environment. […] Then an appropriate volume of RIPA Lysis Solution was added, it was mixed well, and placed on ice for 1 hour, inverted and mixed several times in the middle. Then, the cell lysate was centrifuged at 12000 rpm at 4° C. for 10 minutes, and the supernatant was transferred to another test tube, aliquoted and stored at −20° C. until use.
An equal volume of protein lysate was mixed with an appropriate 6-fold protein loading buffer (Biyun Tian Biochemical Company P0015F), and the mixture was heated at 95 degrees for 10 minutes, after full denaturation, the protein sample was added to the polyacrylamide gel (self-made, raw material purchased from Soleibao Biotechnology Company A1010, 30% acrylamide solution), and electrophoresis was performed at the appropriate voltage for 1 hour, until the strips were fully separated. It was transferred to a polyvinylidene fluoride membrane according to standard procedures, and blocked with 5% skim milk for 1 hour, and the specified antibody was added, and it was diluted 1:1000 in 3% bovine serum albumin, and it was incubated overnight for four degrees. It was thoroughly rinsed, incubated with the secondary antibody, exposed to chemiluminescence and signals were collected. ImageJ software was used to quantify the obtained chemiluminescence results. The same area was selected, the gray values of STAT5 phosphorylation band and GAPDH band of each sample were analyzed, and the ratio of pSTAT5/GAPDH level was calculated. The value of the solvent-treated sample was 100%, and the remaining samples were converted into relative data in the same proportion, that is, the percentage corresponding to the solvent sample. […] The solvent control group was the same as the test compound group except that DMSO was used instead of the DMSO solution of the test compound. N1 (Pimozide) was a specific positive control.

Row | Structure (SMILES) | Inhibiting Ratio (0% for vehicle control) (1 μM) [%] | Inhibiting Ratio (0% for vehicle control) (10 μM) [%] | Inhibiting Ratio (0% for vehicle control) (100 μM) [%] | Example of Effect 1: Inhibiting Ability (Protein Electrophoresis and Blotting)
1 | O=c1[nH]c2ccccc2n1C1CCN(CCCC(c2ccc(F)cc2)c2ccc(F)cc2)CC1 [Example N1, Pimozide, reference compound] | −0.6 | 5.9 | 95.4 | +
2 | CCC(=O)N1CCC(n2c(=O)oc3ccccc32)CC1 [Example P1, 3-(1-propionylpiperidin-4-yl)benzo[d]oxazole-2(3H)-one] |  |  |  | −
3 | O=C(Cc1ccncc1)N1CCC(n2c(=O)oc3ccccc32)CC1 [Example P3, 3-(1-(2-(pyridin-4-yl)acetyl)piperidin-4-yl)benzo[d]oxazole-2(3H)-one] |  |  |  | −
4 | O=C(Cc1ccc(C(F)(F)F)cc1)N1CCC(n2c(=O)oc3ccccc32)CC1 [Example P8, 3-(1-(2-(4-(trifluoromethyl)phenyl)acetyl)piperidin-4-yl)benzo[d]oxazole-2(3H)-one] |  |  |  | −
5 | O=c1oc2ccccc2n1-c1ccn2c(=O)cc(Cc3ccc(F)cc3)cc2c1 [Example P9, 3-(2-(4-fluorobenzyl)-4-oxo-4H-quinazine-8-yl)benzo[d]oxazole-2(3H)-one] |  |  |  | −
6 | O=C(CC(F)(F)F)N1CCC(n2c(=O)[nH]c3ccccc32)CC1 [Example X2, 1-(1-(3,3,3-trifluoropropionyl)piperidin-4-yl)-1H-benzo[d]imidazole-2(3H)-one] |  |  |  | −
7 | O=C(Cc1ccncc1)N1CCC(n2c(=O)[nH]c3ccccc32)CC1 [Example X3, 1-(1-(2-(pyridin-4-yl)acetyl)piperidin-4-yl)-1H-benzo[d]imidazole-2(3H)-one] | 17.4 | 4.7 | 87.5 | −
8 | O=C(Cc1ccccc1)N1CCC(n2c(=O)[nH]c3ccccc32)CC1 [Example X4, 1-(1-(2-phenylacetyl)piperidin-4-yl)-1H-benzo[d]imidazole-2(3H)-one] | 21.2 | 5.3 | 87.8 | −
9 | O=C(O)c1ccc(CC(=O)N2CCC(n3c(=O)[nH]c4ccccc43)CC2)cc1 [Example X6, 4-(2-oxo-2-(4-(2-oxo-2,3-dihydro-1H-benzo[d]imidazol-1-yl)piperidine-1-yl)ethyl)benzoic acid] |  |  |  | −
10 | Cc1ccc(CC(=O)N2CCC(n3c(=O)[nH]c4ccccc43)CC2)cc1 [Example X7, 1-(1-(2-(p-tolyl)acetyl)piperidin-4-yl)-1H-benzo[d]imidazole-2(3H)-one] | −27.9 | −13.6 | 88.5 | −
11 | O=c1[nH]c2ccccc2n1-c1ccn2c(=O)cc(Cc3ccc(F)cc3)cc2c1 [Example X9, 2-(4-fluorobenzyl)-8-(2-oxo-2,3-dihydro-1H-benzo[d]imidazol-1-yl)-4H-quinazine-4-one] | 6.0 | 44.3 | 100.0 | +
12 | COc1cccc2c1[nH]c(=O)n2C1CCN(C(=O)Cc2ccc(C(F)(F)F)cc2)CC1 [GEN1-003, 4-methoxy-1-(1-(2-(4-(trifluoromethyl)phenyl)acetyl)piperidin-4-yl)-1H-benzo[d]imidazole-2(3H)-one] | −10.8 | 22.2 | 94.1 | +
